Results on two compounds are retold here after patent US6552014B2, “Methods of inhibiting platelet activation with selective serotonin reuptake inhibitors” (HeartDrug Research, L.L.C., priority 1999, dated 2003).

Structures are written as SMILES.

The subject of data set [1] is P-selectin. Kind of data set: Flow cytometry of platelet antigen expression, platelet rich plasma. It counts as cell-based, human. To be noted: PRP. From the text:
For ex vivo assessment of the SSRIs effect on a PAM, a level of a PAM can be assessed by flow cytometry by first obtaining a sample that comprises platelets and then contacting the sample with a platelet activation agonist, such as phorbol myristate acetate (PMA), ADP (adenosine diphosphate), thrombin, collagen, and/or TRAP (thrombin receptor activating peptide), under conditions suitable for activation of platelets in the sample. The sample is in contact with the agonist preferably for a period of time effective to maximally activate the platelets. […] Then the formation of the complex in the sample is determined (detected or measured). […] The blood-ACD mixture was centrifuged at 1000 r.p.m. for 10 minutes at room temperature. […] The PRP was then centrifuged at 3000 r.p.m. for 10 minutes. […] All cells were then divided into ten plastic capped tubes. Nine portions of washed platelets were incubated with 5 μfluorescein isothiocyanate (FITC)-conjugated antibodies in the dark at +4 °C for 30 minutes, and one part remained unstained and served as a negative control. […] The instrument was calibrated daily with fluorescence beads (CaliBRITE; Becton Dickinson) and measured FITC-conjugated fluorescence intensity. All parameters were obtained using four decade logarithmic amplification. The data was collected and stored in list mode, and then analyzed using CELLQuest® (version 1.2.2) software. Procedures are described in detail in (Gurbel, P. […] Serebruany, V. […] The levels of various PAMs were assess from samples of human volunteers.
Background: Flow cytometry measures light scatter and fluorescence of single cells or particles in a stream.

Another data set concerns CD9. Described as above. As to conditions: PRP; healthy volunteers; desmethylsertraline 64.2 ng/ml. It counts as cell-based, human.
Data set [2] relates to P-selectin. Kind of data set: Whole blood flow cytometry. Format: cell-based, human. As to conditions: for P-Selectin (% +), % of cell positivity: Whole Blood. From the text: For ex vivo assessment of the SSRIs effect on a PAM, a level of a PAM can be assessed by flow cytometry by first obtaining a sample that comprises platelets and then contacting the sample with a platelet activation agonist, such as phorbol myristate acetate (PMA), ADP (adenosine diphosphate), thrombin, collagen, and/or TRAP (thrombin receptor activating peptide), under conditions suitable for activation of platelets in the sample. The sample is in contact with the agonist preferably for a period of time effective to maximally activate the platelets. […] Then one contacts or stains the samples with a composition that comprises an anti-PAM antibody e.g., having a fluorescent label, preferably in an amount in excess of that required to bind the PAM expressed on the platelets, under conditions suitable for the formation of labeled complexes between the anti-PAM antibody and activated platelets. Then the formation of the complex in the sample is determined (detected or measured).
Four cc of blood was collected in a tube, containing 2 cc of acid-citrate-dextrose (ACD) (7.3 g citric acid, 22.0 g sodium citrate×2H2O and 24.5 glucose in a total amount of 1000 mL distilled water) and mixed well. The buffer, TBS (10 mM Tris, 0.15 M NaCl, pH 7.4) and the following fluorescein isothiocyanate (FITC) conjugated monoclonal antibodies (PharMingen, San Diego, Calif. USA, and DAKO, Calif., USA) were removed from a refrigerator and allowed to warm at room temperature (RT): CD41 (IIb/IIIa), CD31 (PECAM-1), CD62p (P-selectin), CD51/61 (Vitronectin receptor). Six amber tubes (1.25 ml) were obtained and marked. One Eppendorf tube (1.5 ml) was labeled with “Dill WB”, Patient ID #, Initial and Date. The amber tubes and Eppendorf tube were placed in the rack. […] of TBS buffer was pipetted to the labeled Eppendorf tube. The patient's whole blood tube was inverted gently twice to mix. 50 μl of whole blood was pipetted to the “Dill WB” labeled Eppendorf tube. The Eppendorf tube was capped and the diluted whole blood was mixed by inverting the Eppendorf tube gently two times 50 μl of diluted whole blood was pipetted to each amber tube. 5 μl of appropriate antibody was pipetted to the bottom of the corresponding amber tube. The tubes were covered with aluminum foil and incubated at 4° C. for 30 minutes. After incubation, 400 μl of 2% buffered paraformaldehyde was added. To prepare 2% Paraformaldehyde:Dilute 1 part 10% paraformaldehyde with 4 parts TBS. This solution was stored at 4° C. for up to one week. The amber tubes were closed with a lid tightly and stored in a refrigerator at 4° C. until the flow cytometric analysis. The samples are analyzed on a Becton Dickinson FACScan flow cytometer. The instrument is set up to measure forward light scatter (FSC), and FITC fluorescence. All parameters are collected using four decade logarithmic amplification.
The data in table 1 was obtained using the methods described herein, and in particular, in Examples 1 and 2. The levels of various PAMs were assess from samples of human volunteers. […] Baseline levels of the PAMs were also obtained (without exposure to sertraline or NDMS).

In a further data set the test system is platelets. Kind of data set: Platelet aggregation in whole blood (ADP or collagen). It counts as cell-based, human. As to the method:
Trisodium citrate (3.8%) and whole blood is immediately mixed in a 1:9 ratio, and then centrifuged at 1200 g for 2.5 minutes, to obtain platelet-rich plasma (PRP), which is kept at room temperature for use within 1 hour for platelet aggregation studies. Platelet count is determined in each PRP sample with a Coulter Counter ZM (Coulter Co., Hialeah, Fla.). Platelet numbers are adjusted to 3.50×10^8/ml for aggregation with homologous platelet-poor plasma. PRP and whole blood aggregation tests are performed simultaneously. Whole blood is diluted 1.1 with the 0.5 ml PBS, and then swirled gently to mix . The cuvette with the stirring bar is placed in the incubation well and allowed to warm to 37° C. for 5 minutes. Then the sample are transferred to the assay well. An electrode is placed in the sample cuvette. Platelet aggregation is stimulated with 5 μM ADP, 1 μg/ml collagen, and 0.75 mM arachidonic acid. All agonists are obtained from Chronolog Corporation (Hawertown, Pa.). […] Platelet aggregability are expressed as the percentage of light transmittance change from baseline using platelet-poor plasma as a reference at the end of recording time for plasma samples, or as a change in electrical impedance for whole blood samples. Aggregation curves are recorded for 4 minutes and analyzed according to internationally established standards using Aggrolinkg® software.

The conditions of data set [3]: in vivo; cited from earlier work.
[4] abbreviates: healthy volunteers, desmethylsertraline 31.1 ng/ml.
Setting [5] is: healthy volunteers, desmethylsertraline 64.2 ng/ml.
[6] abbreviates: healthy volunteers, desmethylsertraline 143 ng/ml.
[7] abbreviates: post-angioplasty patient on aspirin, desmethylsertraline 31.1 ng/ml.
The mark [8] stands for this setting: post-angioplasty patient on aspirin, desmethylsertraline 64.2 ng/ml.
Setting [9] is: post-angioplasty patient on aspirin, desmethylsertraline 143 ng/ml.

Consider `N[C@H]1CC[C@@H](c2ccc(Cl)c(Cl)c2)c2ccccc21` [Desmethyl sertraline, N-desmethylsertraline], for which the “P-selectin (mean) log fluorescence intensity” value in the data set with P-selectin [1] (setting [4]) stood at 11.8; in the data set with P-selectin [1] (setting [5]) it was 10.5; with P-selectin [1] (setting [6]), 13.5; with P-selectin [1] (setting [7]) it was 15; in the data set on P-selectin [1] (setting [8]) it was 11; in the data set on P-selectin [1] (setting [9]), 13.4. The “P-selectin (peak) log fluorescence intensity” value in the data set on P-selectin [1] (setting [4]) was found to be 459; in the data set with P-selectin [1] (setting [5]), 494; in the data set with P-selectin [1] (setting [6]), 398; in the data set on P-selectin [1] (setting [7]) it was 322; in the data set with P-selectin [1] (setting [8]) it was 537; with P-selectin [1] (setting [9]), 378. Moreover, the “CD9 (mean) log fluorescence intensity” value in the data set on CD9 is reported as 859. Moreover, the “P-Selectin (% +), % of cell positivity” value in the data set on P-selectin [2] (setting [4]) is 1.2%; in the data set with P-selectin [2] (setting [5]), 3.3%; with P-selectin [2] (setting [6]), 0.4%; in the data set on P-selectin [2] (setting [7]) it was 10.68%; in the data set on P-selectin [2] (setting [8]), 8.04%; in the data set on P-selectin [2] (setting [9]), 9.92%. In the data set on P-selectin [2] (whole blood, post-angioplasty patient, increasing concentrations), the “P-selectin expression (FIG. 4), in words” value is “striking decreases in expression”.
Turning to `CN[C@H]1CC[C@@H](c2ccc(Cl)c(Cl)c2)c2ccccc21` [sertraline], the “ADP-, and collagen-induced platelet aggregation in whole blood (in vitro), in words” value with platelets (healthy controls and patients with coronary artery disease, including those on aspirin) was “Dose-dependent inhibition”. The “percent of platelet aggregation (FIGS. 2 and 3), in words” value in the data set with platelets (whole blood, healthy volunteer, induced with ADP or collagen, sertraline 18.1, 44.7 or 85.3 ng/ml) was “decreases with increasing amounts of sertraline”. The half life in data set [3] was 25 to 32 h.
